assay: Human HepG2 cell viability assay in 384 well format; type: toxicity, cell-based; set-up: dose 125 nL, time 70.5 hour; cytotoxicity at 70.5 h: concentration not given beside the values; settings: HepG2 cells, read-out: Inhibition

Compared with `CCOCC(O)CN1CCN(C(=O)c2cc(C)ccc2F)CC1` (stereo not drawn), `CCOC(=O)c1c(NC(=O)CN2CCN(C(C)=O)CC2)sc(C)c1C` is lower in cytotoxicity at 70.5 h: -3.47% for the first, -13.3% for the second.

First: NC(=O)C1CCN(C(=O)C2SCCc3sccc32)CC1 (stereo not drawn)
Second: CS(=O)(=O)Cc1nc(CN2CCCc3sccc3C2)cs1
The cytotoxicity at 70.5 h of the first is lower: -10.3% for the first, -5.84% for the second.

Compared with `c1ccc(OC2CCCC2)c(CNC2CCc3ncnn3C2)c1` (stereo not drawn), `CCc1nc2n(n1)CC(NCc1cc3ccccc3o1)CC2` (stereo not drawn) is lower in cytotoxicity at 70.5 h: 1.21% for the first, -8.62% for the second.

First: CO[C@@H]1CCN(S(=O)(=O)N(C)C)[C@@H]2CN(Cc3ccncc3)C[C@@H]21
Second: Cc1ccc(CN(C)C(=O)CN2CCCC(Cn3cncn3)C2)cc1 (stereo not drawn)
The cytotoxicity at 70.5 h of the first is lower: -1.72% for the first, 22.9% for the second.

Compared with `O=C(O)c1c(-c2ccncc2)ncc2c1CCN(C1CCOC1)C2` (stereo not drawn), `O=C(NC1CC1)C(c1ccccc1)N1CCn2c(nnc2C2CC2)C1` (stereo not drawn) is higher in cytotoxicity at 70.5 h: -9.17% for the first, 1.07% for the second.

Compared with `O=C1C[C@H]2[C@@H](CCN2Cc2ccccn2)N1CCN1CCOCC1`, `c1cnc(NCc2noc3c2CN(CCN2CCCC2)CC3)nc1` is lower in cytotoxicity at 70.5 h: 6.45% for the first, -7.61% for the second.

First: COc1c(Br)cc(Br)cc1CNC(C)Cn1cccn1 (stereo not drawn)
Second: CC(CNCc1ccc(Cl)c(Cl)c1)Oc1ccccn1 (stereo not drawn)
The cytotoxicity at 70.5 h of the first is higher: 16.4% for the first, -1.69% for the second.

Compared with `Cc1ncsc1CNC(=O)N(Cc1ccccc1)CC(C)(C)O`, `Cc1ncsc1C(=O)N(C)Cc1cccnc1` is lower in cytotoxicity at 70.5 h: -3.17% for the first, -9.5% for the second.

Going from `Cc1cccn2cc(CNCc3cccc4c3OCCCO4)nc12` to `CCn1c(CNC(=O)c2ccc(N(C)C)nc2)nc2ccccc21`, the cytotoxicity at 70.5 h falls from 8.14% to -8.62%.

Going from `CCCc1n[nH]c(C2CN(CCS(=O)(=O)CC)CCO2)n1` (stereo not drawn) to `CCCc1noc(CCC(=O)N2CCCC(n3ccnc3C)C2)n1` (stereo not drawn), the cytotoxicity at 70.5 h falls from -7.9% to -9.38%.

Going from `O=C([C@H](O)c1ccccc1)N1CCN(c2cccc(Cl)c2)C(=O)C1` to `CN(C(=O)c1ccc(Cl)cn1)c1ccccc1S(C)(=O)=O`, the cytotoxicity at 70.5 h falls from 13.8% to -5.72%.

Compared with `Cc1cnccc1-c1cc(NCCO)nc2[nH]ccc12`, `CC(C)Nc1ccc(-c2ccnc3c2ccn3C)nn1` is higher in cytotoxicity at 70.5 h: 14.2% for the first, 15.5% for the second.

Compared with `Cc1cc(CNC(=O)CCc2c(C)nc3cc(O)nn3c2C)no1`, `CCOCCNC(=O)c1cccc(Cn2nc(C)cc2C)c1` is lower in cytotoxicity at 70.5 h: -6.68% for the first, -7.21% for the second.

Compared with `N#Cc1ccc(CNCC2(c3ccccc3)CCOCC2)cc1`, `c1ccc(-c2nc(CCNCc3cccnc3)co2)cc1` is higher in cytotoxicity at 70.5 h: -12% for the first, -4.67% for the second.

Compared with `CCc1nc(CCNC(=O)NC2CCC(=O)N(C)C2)sc1C` (stereo not drawn), `CCNC(=O)N(C)C1CCN(Cc2ncc(C)c(OC)c2C)CC1` is higher in cytotoxicity at 70.5 h: -8.41% for the first, -8% for the second.

Compared with `CC(C)(C)c1nnnn1CC(=O)N(CCC#N)c1ccccc1`, `CC(C)(C)n1ncc2c1NC(=O)CC2c1ccccc1` (stereo not drawn) is higher in cytotoxicity at 70.5 h: -9.07% for the first, -7.73% for the second.

Compared with `Cc1c(C(=O)N2CCCC2c2cnn(C)c2)nnn1-c1ccccc1` (stereo not drawn), `COCc1nc(C(=O)N2CCCC2c2c(C)nn(C)c2C)cs1` (stereo not drawn) is higher in cytotoxicity at 70.5 h: -7.15% for the first, -6.67% for the second.

Compared with `NC(=O)CN1CCN(CC2CC2)c2ccccc21`, `Cn1c(CN2CCN(CC3CCCO3)CC2)nc2ccccc21` (stereo not drawn) is lower in cytotoxicity at 70.5 h: 13.1% for the first, -9.16% for the second.

Compared with `O=C(c1cnccn1)N1C[C@@H]2CCN(c3cccnc3)C[C@@H]2C1`, `COc1ccccc1CN1C[C@@H]2COC[C@]2(COc2cccnc2)C1` is lower in cytotoxicity at 70.5 h: -9.4% for the first, -116% for the second.

Going from `CCN(CC)CCNC(=O)c1cc(C(C)C)nc(N2CCCC2)n1` to `CCC(=O)N1CCC(O)(c2ncc(OC)nc2OC)CC1`, the cytotoxicity at 70.5 h falls from 56.7% to -12.8%.

Going from `Cn1ncc2c(=O)[nH]c(CN3CCCC3c3cccs3)nc21` (stereo not drawn) to `Cn1ncc2c(N3CCS(=O)(=O)CC3)nc(C3CCCC3)nc21`, the cytotoxicity at 70.5 h rises from -10.3% to -6%.

Going from `CN(Cc1nc(Cc2cccc(F)c2)no1)C1CCOCC1` to `Cc1noc(C)c1CN(Cc1ccccc1)C(C)C`, the cytotoxicity at 70.5 h rises from -13.9% to 12.4%.

Compared with `CC(=O)NC[C@@]1(COc2cnccn2)C[C@@H](O)[C@@H](O)C1`, `CCn1nccc1CNC(=O)C1CCC1` is higher in cytotoxicity at 70.5 h: -3.14% for the first, -2.95% for the second.

First: Cc1ccc(CNC(=O)C2=NOC3(CCCNC3)C2)cc1 (stereo not drawn)
Second: O=C(NCC1(O)CCCC1)c1ccc2nsnc2c1
The cytotoxicity at 70.5 h of the first is higher: -13.2% for the first, -20.9% for the second.

First: CN1CCCC1CNC(=O)CCCOc1ccc(I)cc1 (stereo not drawn)
Second: CC(c1cccnc1)N(C)C(=O)NCCOc1ccc(C#N)cc1 (stereo not drawn)
The cytotoxicity at 70.5 h of the first is higher: -0.485% for the first, -11.1% for the second.

Going from `COc1ccc(NS(=O)(=O)CC2=NC(=O)n3cccc3C2=O)cc1Cl` to `CC(C)c1ccc(CS(=O)(=O)Cc2nc(N)nc(N(C)C)n2)cc1`, the cytotoxicity at 70.5 h rises from -8.91% to -6.09%.

Compared with `Cc1cncc(C(=O)N2CCCC3(CCCN3S(C)(=O)=O)C2)c1` (stereo not drawn), `CCNC(=O)C1(Cc2cc(-c3ccccc3)no2)CCCN(C)C1` (stereo not drawn) is higher in cytotoxicity at 70.5 h: -8.81% for the first, -5.43% for the second.

Compared with `CCn1cc(Cl)c(C(=O)NCc2cnn(C)c2)n1`, `Cc1cnn(Cc2ccc(NC(=O)N[C@@H]3C=C[C@H](CO)C3)cc2)c1` is lower in cytotoxicity at 70.5 h: -0.0278% for the first, -15.1% for the second.

Going from `Cc1noc([C@@H](C)NCc2cccc(Cl)c2)c1C(=O)O` to `CNc1ccccc1C(=O)N(C)CCc1ccccc1`, the cytotoxicity at 70.5 h falls from 2.52% to -5.46%.
